In patent US9505762B2, “Purine derivatives as CB2 receptor agonists” (Hoffmann-La Roche Inc., priority 2013, dated 2016):

Legend:
human CB1 receptors = human CB1 receptors (Homo sapiens (Human), UniProt P21554); assay: functional cAMP assay, CB1; type: cell-based; conditions: CHO cells expressing human CB1
human CB2 receptors = human CB2 receptors (Homo sapiens (Human), UniProt P34972); assay: functional cAMP assay, CB2; type: cell-based; conditions: CHO cells expressing human CB2
Chain of human CB2 receptors (P34972 whole entry): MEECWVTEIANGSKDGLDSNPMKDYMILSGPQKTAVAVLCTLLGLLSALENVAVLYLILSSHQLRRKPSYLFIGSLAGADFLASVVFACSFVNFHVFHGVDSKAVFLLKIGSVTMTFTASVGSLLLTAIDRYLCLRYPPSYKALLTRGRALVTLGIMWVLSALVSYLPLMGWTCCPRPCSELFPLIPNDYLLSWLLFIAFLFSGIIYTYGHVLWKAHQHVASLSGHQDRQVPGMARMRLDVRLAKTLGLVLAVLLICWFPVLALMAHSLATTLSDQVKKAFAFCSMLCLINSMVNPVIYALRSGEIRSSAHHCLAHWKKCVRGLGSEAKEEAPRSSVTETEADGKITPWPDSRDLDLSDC

Chain of human CB1 receptors (P21554 whole entry): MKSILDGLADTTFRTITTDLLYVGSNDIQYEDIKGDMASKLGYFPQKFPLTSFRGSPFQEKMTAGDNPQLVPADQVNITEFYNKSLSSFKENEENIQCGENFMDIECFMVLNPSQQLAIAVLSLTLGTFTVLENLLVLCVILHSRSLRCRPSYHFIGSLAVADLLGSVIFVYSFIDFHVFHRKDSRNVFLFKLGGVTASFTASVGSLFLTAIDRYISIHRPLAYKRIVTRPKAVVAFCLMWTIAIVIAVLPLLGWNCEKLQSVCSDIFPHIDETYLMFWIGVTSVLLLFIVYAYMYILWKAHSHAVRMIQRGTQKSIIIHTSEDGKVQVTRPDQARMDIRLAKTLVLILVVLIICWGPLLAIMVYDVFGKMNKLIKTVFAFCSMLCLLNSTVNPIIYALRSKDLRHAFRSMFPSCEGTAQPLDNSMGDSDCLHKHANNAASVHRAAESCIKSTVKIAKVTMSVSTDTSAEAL

SMILES	EC50 (human CB1 receptors) [nM]	EC50 (human CB2 receptors) [nM]
CC1(O)CCN(c2nc(NC(C)(C)C)nc3c2ncn3Cc2ccccc2C(F)(F)F)C1 (stereo not shown) [Example 121, 1-[2-(tert-butylamino)-9-[[2-(trifluoromethyl)phenyl]methyl]purin-6-yl]-3-methylpyrrolidin-3-ol]	> 10000	41.3
Cc1nonc1Cn1cnc2c(N3CCC(C)(O)C3)nc(NC(C)(C)C)nc21 (stereo not shown) [Example 123, 1-[2-(tert-butylamino)-9-[(4-methyl-1,2,5-oxadiazol-3-yl)methyl]purin-6-yl]-3-methylpyrrolidin-3-ol]	> 10000	563
CC(C)(C)COc1nc(N2CCC(F)(F)C2)c2ncn(Cc3ccccc3Cl)c2n1 [Example 124, 9-[(2-chlorophenyl)methyl]-6-(3,3-difluoropyrrolidin-1-yl)-2-(2,2-dimethylpropoxy) purine]	> 10000	2.7
CC(C)(C)COc1nc(N2CCC(F)(F)C2)c2ncn(Cc3ccccc3C(F)(F)F)c2n1 [Example 125, 6-(3,3-difluoropyrrolidin-1-yl)-2-(2,2-dimethylpropoxy)-9-[[2-(trifluoromethyl)phenyl]methyl]purine]	> 10000	2.6
CC(C)(C)COc1nc(N2CCC(F)(F)C2)c2ncn(Cc3ccccc3S(C)(=O)=O)c2n1 [Example 126, 6-(3,3-difluoropyrrolidin-1-yl)-2-(2,2-dimethylpropoxy)-9-[(2-methylsulfonylphenyl)methyl]purine]	> 10000	24.5
Cc1nnc(Cn2cnc3c(N4CCC(F)(F)C4)nc(OCC(C)(C)C)nc32)o1 [Example 127, 2-[[6-(3,3-difluoropyrrolidin-1-yl)-2-(2,2-dimethylpropoxy)purin-9-yl]methyl]-5-methyl-1,3,4-oxadiazole]	> 10000	332
Cc1noc(Cn2cnc3c(N4CCC(F)(F)C4)nc(OCC(C)(C)C)nc32)n1 [Example 128, 5-[[6-(3,3-difluoropyrrolidin-1-yl)-2-(2,2-dimethylpropoxy)purin-9-yl]methyl]-3-methyl-1,2,4-oxadiazole]	> 10000	109
Cn1nnnc1Cn1cnc2c(N3CCC(F)(F)C3)nc(OCC(C)(C)C)nc21 [Example 129, 6-(3,3-difluoropyrrolidin-1-yl)-2-(2,2-dimethylpropoxy)-9-[(1-methyltetrazol-5-yl)methyl]purine]	> 10000	95.6
CC(C)(C)Nc1nc(N2CC[C@H](O)C2)c2ncn(CCC(F)(F)F)c2n1 [Example 130, (3S)-1-[2-(tert-butylamino)-9-(3,3,3-trifluoropropyl)purin-6-yl]pyrrolidin-3-ol]	> 10000	215
CC(C)(C)COc1nc(N2CCC(C)(O)C2)c2ncn(Cc3ccccc3Cl)c2n1 (stereo not shown) [Example 131, 1-[9-[(2-chlorophenyl)methyl]-2-(2,2-dimethylpropoxy)purin-6-yl]-3-methyl pyrrolidin-3-ol]	> 10000	66.7
CC(C)(C)COc1nc(N2CCC(C)(O)C2)c2ncn(Cc3ccccc3C(F)(F)F)c2n1 (stereo not shown) [Example 132, 1-[2-(2,2-dimethylpropoxy)-9-[[2-(trifluoromethyl)phenyl]methyl]purin-6-yl]-3-methylpyrrolidin-3-ol]	> 10000	22.1
CC(C)(C)COc1nc(N2CCC(C)(O)C2)c2ncn(Cc3ccccc3S(C)(=O)=O)c2n1 (stereo not shown) [Example 133, 1-[2-(2,2-dimethylpropoxy)-9-[(2-methylsulfonylphenyl)methyl]purin-6-yl]-3-methylpyrrolidin-3-ol]	> 10000	149
CC(C)(C)COc1nc(N2CCC(C)(O)C2)c2ncn(Cc3ncccc3Cl)c2n1 (stereo not shown) [Example 134, 1-[9-[(3-chloropyridin-2-yl)methyl]-2-(2,2-dimethylpropoxy)purin-6-yl]-3-methylpyrrolidin-3-ol]	> 10000	178
Cc1nonc1Cn1cnc2c(N3CCC(C)(O)C3)nc(OCC(C)(C)C)nc21 (stereo not shown) [Example 135, 1-[2-(2,2-dimethylpropoxy)-9-[(4-methyl-1,2,5-oxadiazol-3-yl)methyl]purin-6-yl]-3-methylpyrrolidin-3-ol]	> 10000	30.7
CC1(O)CCN(c2nc(NC(C)(C)C)nc3c2ncn3Cc2c[nH]nc2C(F)(F)F)C1 (stereo not shown) [Example 136, 1-[2-(tert-butylamino)-9-[[3-(trifluoromethyl)-1H-pyrazol-4-yl]methyl]purin-6-yl]-3-methylpyrrolidin-3-ol]	> 10000	150
CC(C)(C)Nc1nc(N2CC3(COC3)C2)c2ncn(Cc3ccccc3Cl)c2n1 [Example 138, N-tert-butyl-9-[(2-chlorophenyl)methyl]-6-(2-oxa-6-azaspiro[3.3]heptan-6-yl)purin-2-amine]	> 10000	78.1
CC(C)(C)c1nc(N2CC[C@H](O)C2)c2ncn(Cc3nnnn3C3CC3)c2n1 [Example 139, (3S)-1-[2-tert-butyl-9-[(1-cyclopropyltetrazol-5-yl)methyl]purin-6-yl]pyrrolidin-3-ol]	> 10000	201
Cc1nonc1Cn1cnc2c(N3CCC(F)(F)C3)nc(OCC(C)(C)C)nc21 [Example 140, 3-[[6-(3,3-difluoropyrrolidin-1-yl)-2-(2,2-dimethylpropoxy)purin-9-yl]methyl]-4-methyl-1,2,5-oxadiazole]	> 10000	9.2

SMILES	EC50 (human CB1 receptors) [nM]	EC50 (human CB2 receptors) [nM]
Cc1noc(Cn2cnc3c(N4CC5(COC5)C4)nc(NC(C)(C)C)nc32)n1 [Example 141, N-tert-butyl-9-[(3-methyl-1,2,4-oxadiazol-5-yl)methyl]-6-(2-oxa-6-azaspiro[3.3]heptan-6-yl)purin-2-amine]	> 10000	40.9
CC(C)(C)Nc1nc(N2CC3(COC3)C2)c2ncn(CCC(F)(F)F)c2n1 [Example 142, N-tert-butyl-6-(2-oxa-6-azaspiro[3.3]heptan-6-yl)-9-(3,3,3-trifluoropropyl)purin-2-amine]	> 10000	681
CC(C)(C)COc1nc(N2CC3(COC3)C2)c2ncn(Cc3ccccc3Cl)c2n1 [Example 143, 6-[9-[(2-chlorophenyl)methyl]-2-(2,2-dimethylpropoxy)purin-6-yl]-2-oxa-6-azaspiro[3.3]heptane]	> 10000	268
Cc1nonc1Cn1cnc2c(N3CCC[C@@H]3CO)nc(C(C)(C)C)nc21 [Example 145, [(2R)-1-[2-tert-butyl-9-[(4-methyl-1,2,5-oxadiazol-3-yl)methyl]purin-6-yl]pyrrolidin-2-yl]methanol]	> 10000	6.1
CC(C)(C)c1nc(N2CCC[C@@H]2C#N)c2ncn(Cc3nnnn3C3CC3)c2n1 [Example 147, (2R)-1-[2-tert-butyl-9-[(1-cyclopropyltetrazol-5-yl)methyl]purin-6-yl]pyrrolidine-2-carbonitrile]	> 10000	176
Cc1nonc1Cn1cnc2c(N3CCC[C@@H]3C#N)nc(C(C)(C)C)nc21 [Example 148, (2R)-1-[2-tert-butyl-9-[(4-methyl-1,2,5-oxadiazol-3-yl)methyl]purin-6-yl]pyrrolidine-2-carbonitrile]	> 10000	15.7
Cc1nonc1Cn1cnc2c(N3CC4(COC4)C3)nc(C(C)(C)C)nc21 [Example 149, 6-[2-tert-butyl-9-[(4-methyl-1,2,5-oxadiazol-3-yl)methyl]purin-6-yl]-2-oxa-6-azaspiro[3.3]heptane]	> 10000	185
Cc1nonc1Cn1cnc2c(N3CCSC3)nc(C(C)(C)C)nc21 [Example 150, 3-[[2-tert-butyl-6-(1,3-thiazolidin-3-yl)purin-9-yl]methyl]-4-methyl-1,2,5-oxadiazole]	> 10000	10.5
CC(C)(C)COc1nc(N2CCC(F)(F)C2)c2nc[nH]c2n1 [Example 151, 6-(3,3-difluoropyrrolidin-1-yl)-2-(2,2-dimethylpropoxy)-9H-purine]	> 10000	28.7
FC1(F)CCN(c2nc(Cl)nc3c2ncn3Cc2ccccc2)C1 [Example 154, 9-benzyl-2-chloro-6-(3,3-difluoropyrrolidin-1-yl)purine]	> 10000	211
CC(C)n1nnnc1Cn1cnc2c(N3CC[C@H](O)C3)nc(C(C)(C)C)nc21 [Example 155, (3S)-1-[2-tert-butyl-9-[(1-propan-2-yltetrazol-5-yl)methyl]purin-6-yl]pyrrolidin-3-ol]	> 10000	82.3
CC(C)(C)c1nc(N2CCC(F)(F)C2)c2ncn(Cc3nnnn3C3CC3)c2n1 [Example 156, 2-tert-butyl-9-[(1-cyclopropyltetrazol-5-yl)methyl]-6-(3,3-difluoropyrrolidin-1-yl)purine]	> 10000	9.1
CC(C)(C)c1nc(N2CCC[C@@H]2CO)c2ncn(Cc3ncccc3Cl)c2n1 [Example 157, [(2R)-1-[2-tert-Butyl-9-[(3-chloropyridin-2-yl)methyl]purin-6-yl]pyrrolidin-2-yl]methanol]	> 10000	4.3
CCCn1nnnc1Cn1cnc2c(N3CC[C@H](O)C3)nc(C(C)(C)C)nc21 [Example 158, (3S)-1-[2-tert-butyl-9-[(1-propyltetrazol-5-yl)methyl]purin-6-yl]pyrrolidin-3-ol]	> 10000	61.6
CC(C)(C)c1nc(N2CC[C@H](O)[C@H]2CO)c2ncn(Cc3ncccc3Cl)c2n1 [Example 159, (2R,3S)-1-[2-tert-butyl-9-[(3-chloropyridin-2-yl)methyl]purin-6-yl]-2-(hydroxymethyl)pyrrolidin-3-ol]	> 10000	591
CC(C)(C)c1nc(N2CCSC2)c2ncn(Cc3ncccc3Cl)c2n1 [Example 161, 3-[2-tert-butyl-9-[(3-chloropyridin-2-yl)methyl]purin-6-yl]-1,3-thiazolidine]	> 10000	12.6
CC(C)(C)c1nc(N2CCC[C@@H]2C#N)c2ncn(Cc3ncccc3Cl)c2n1 [Example 163, (2R)-1-[2-tert-Butyl-9-[(3-chloropyridin-2-yl)methyl]purin-6-yl]pyrrolidine-2-carbonitrile]	> 10000	6.9
